Laboratory results as given in ChEMBL document CHEMBL1145616, “Pyridyl-phenyl ether monoamine reuptake inhibitors: Impact of lipophilicity on dual SNRI pharmacology and off-target promiscuity” (Bioorg Med Chem Lett, 2008).

Key:
[1] = target: Sodium-dependent serotonin transporter (Homo sapiens, UniProt P31645); test: Inhibition of [3H]5-HT uptake at human recombinant 5HT transporter expressed in HEK293 cells; type: cell-based
[2] = target: Sodium-dependent noradrenaline transporter (Homo sapiens, UniProt P23975); test: Inhibition of [3H]NA uptake at human recombinant NA transporter expressed in HEK293 cells; type: cell-based
[3] = target: Sodium-dependent dopamine transporter (Homo sapiens, UniProt Q01959); test: Inhibition of [3H]DA uptake at human recombinant DAT expressed in HEK293 cells; type: cell-based
[4] = Intrinsic clearance in human liver microsomes; type: ADME, Microsome
[5] = Intrinsic clearance per 10^6 cells in human hepatocytes; type: ADME, cell-based, Liver, Hepatocyte
Cytochrome P450 2D6 = Cytochrome P450 2D6 (Homo sapiens, UniProt P10635); test: Inhibition of CYP2D6; type: ADME
Cytochrome P450 3A4 = Cytochrome P450 3A4 (Homo sapiens, UniProt P08684); test: Inhibition of CYP3A4; type: ADME
Cytochrome P450 3A4, sequence (P08684 whole entry): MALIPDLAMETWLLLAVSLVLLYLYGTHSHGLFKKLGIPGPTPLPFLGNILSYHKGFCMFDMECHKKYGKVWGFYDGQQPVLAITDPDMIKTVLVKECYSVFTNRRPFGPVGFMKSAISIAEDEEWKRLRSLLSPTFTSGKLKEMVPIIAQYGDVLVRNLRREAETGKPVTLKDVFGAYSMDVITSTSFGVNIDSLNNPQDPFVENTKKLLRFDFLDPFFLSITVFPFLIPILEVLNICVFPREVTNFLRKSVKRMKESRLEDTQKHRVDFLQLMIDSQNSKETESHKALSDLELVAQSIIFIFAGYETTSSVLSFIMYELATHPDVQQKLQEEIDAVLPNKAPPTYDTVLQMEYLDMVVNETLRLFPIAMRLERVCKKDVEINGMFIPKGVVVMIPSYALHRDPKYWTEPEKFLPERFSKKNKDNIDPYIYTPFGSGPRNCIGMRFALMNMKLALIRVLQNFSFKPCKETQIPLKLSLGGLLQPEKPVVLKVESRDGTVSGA

Sodium-dependent noradrenaline transporter, sequence (P23975 whole entry): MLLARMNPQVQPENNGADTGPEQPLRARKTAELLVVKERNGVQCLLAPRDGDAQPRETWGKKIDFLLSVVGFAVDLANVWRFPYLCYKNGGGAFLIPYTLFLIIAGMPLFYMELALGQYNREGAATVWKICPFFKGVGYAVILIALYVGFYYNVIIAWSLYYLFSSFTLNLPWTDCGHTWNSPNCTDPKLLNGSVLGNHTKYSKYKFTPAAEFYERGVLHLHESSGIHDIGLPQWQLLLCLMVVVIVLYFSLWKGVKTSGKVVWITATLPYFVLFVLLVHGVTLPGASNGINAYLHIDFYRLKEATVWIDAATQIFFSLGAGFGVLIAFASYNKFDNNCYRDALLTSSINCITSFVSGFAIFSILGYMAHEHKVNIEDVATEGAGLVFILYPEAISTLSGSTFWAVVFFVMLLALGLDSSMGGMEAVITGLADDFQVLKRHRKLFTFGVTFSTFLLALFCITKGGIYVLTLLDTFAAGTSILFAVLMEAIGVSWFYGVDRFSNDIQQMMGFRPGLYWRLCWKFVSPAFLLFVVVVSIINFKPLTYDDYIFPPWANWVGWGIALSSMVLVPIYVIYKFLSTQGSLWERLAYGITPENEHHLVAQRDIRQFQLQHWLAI
Sodium-dependent dopamine transporter, sequence (Q01959 whole entry): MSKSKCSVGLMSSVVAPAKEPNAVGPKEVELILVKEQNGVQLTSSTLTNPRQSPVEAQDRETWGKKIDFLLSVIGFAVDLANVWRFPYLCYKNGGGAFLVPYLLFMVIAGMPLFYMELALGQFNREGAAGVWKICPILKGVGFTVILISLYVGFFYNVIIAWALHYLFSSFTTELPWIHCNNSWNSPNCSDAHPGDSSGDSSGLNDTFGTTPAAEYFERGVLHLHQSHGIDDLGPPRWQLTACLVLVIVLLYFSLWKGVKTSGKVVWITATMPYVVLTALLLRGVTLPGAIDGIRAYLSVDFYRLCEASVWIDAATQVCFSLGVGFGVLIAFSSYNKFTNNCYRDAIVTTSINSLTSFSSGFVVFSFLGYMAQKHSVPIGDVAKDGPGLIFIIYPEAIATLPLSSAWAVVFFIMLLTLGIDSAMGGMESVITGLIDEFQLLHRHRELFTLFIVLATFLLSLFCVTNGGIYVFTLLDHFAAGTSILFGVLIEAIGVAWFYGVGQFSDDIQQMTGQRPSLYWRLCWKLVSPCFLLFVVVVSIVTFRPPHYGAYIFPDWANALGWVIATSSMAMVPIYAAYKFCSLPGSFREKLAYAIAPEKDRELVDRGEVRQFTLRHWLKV
Sodium-dependent serotonin transporter, sequence (P31645 whole entry): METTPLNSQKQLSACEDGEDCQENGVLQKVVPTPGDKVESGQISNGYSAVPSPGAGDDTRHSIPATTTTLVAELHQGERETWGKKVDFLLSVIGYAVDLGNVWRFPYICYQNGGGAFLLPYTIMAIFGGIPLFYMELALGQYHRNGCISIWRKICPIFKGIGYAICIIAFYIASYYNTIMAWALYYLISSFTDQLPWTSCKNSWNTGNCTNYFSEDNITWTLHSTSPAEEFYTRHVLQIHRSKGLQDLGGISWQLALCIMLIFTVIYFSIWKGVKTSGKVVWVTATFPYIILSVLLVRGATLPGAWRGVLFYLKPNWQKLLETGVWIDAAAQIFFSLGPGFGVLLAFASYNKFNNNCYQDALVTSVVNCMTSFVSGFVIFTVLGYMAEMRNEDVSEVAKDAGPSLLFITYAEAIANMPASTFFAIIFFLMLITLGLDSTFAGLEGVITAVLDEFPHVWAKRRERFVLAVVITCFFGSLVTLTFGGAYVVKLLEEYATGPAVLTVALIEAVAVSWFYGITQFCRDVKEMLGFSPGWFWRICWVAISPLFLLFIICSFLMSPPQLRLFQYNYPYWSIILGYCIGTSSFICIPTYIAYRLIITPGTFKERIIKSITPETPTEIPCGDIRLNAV
Cytochrome P450 2D6, sequence (P10635 whole entry): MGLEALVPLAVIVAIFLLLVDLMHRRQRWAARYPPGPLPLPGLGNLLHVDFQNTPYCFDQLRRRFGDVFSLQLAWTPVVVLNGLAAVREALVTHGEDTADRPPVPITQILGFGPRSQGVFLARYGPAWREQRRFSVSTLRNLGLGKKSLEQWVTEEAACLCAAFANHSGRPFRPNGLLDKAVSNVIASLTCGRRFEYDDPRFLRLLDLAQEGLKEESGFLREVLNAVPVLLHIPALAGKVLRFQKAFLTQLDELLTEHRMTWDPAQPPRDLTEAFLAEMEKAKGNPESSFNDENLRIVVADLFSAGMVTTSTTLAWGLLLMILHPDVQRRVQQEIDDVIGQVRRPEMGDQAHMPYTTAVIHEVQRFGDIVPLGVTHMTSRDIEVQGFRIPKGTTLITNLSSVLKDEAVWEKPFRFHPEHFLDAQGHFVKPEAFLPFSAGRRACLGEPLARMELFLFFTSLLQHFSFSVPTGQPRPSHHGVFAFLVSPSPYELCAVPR

Compound: COc1cc(Cl)ccc1Oc1cc(C)ncc1CN(C)C
- IC50 [1]: 13 nM
- IC50 [2]: 26 nM
- IC50 [3]: 5040 nM
- microsomal CLint [4]: < 7 µL/min/mg
- hepatocyte CLint [5]: < 5 µL/min/1e6 cells
- IC50 (Cytochrome P450 2D6): > 10000 nM
- IC50 (Cytochrome P450 3A4): > 10000 nM

Compound: CCc1cc(Cl)ccc1Oc1cc(C)ncc1CNC
- IC50 [1]: 20 nM
- IC50 [2]: 22 nM
- IC50 [3]: 34100 nM

Compound: CNCc1cnc(C)cc1Oc1ccc(Cl)cc1Br
- IC50 [1]: 10 nM
- IC50 [2]: 38 nM

Compound: CNCc1cc(C(=O)N(C)C)ccc1Oc1ccc(Cl)cc1OC
- IC50 [1]: 7 nM
- IC50 [3]: > 4000 nM
- hepatocyte CLint [5]: 21 µL/min/1e6 cells

Compound: CCc1cc(Cl)ccc1Oc1ccncc1CNC
- IC50 [1]: 46 nM
- IC50 [2]: 86 nM

Compound: CNCc1cnc(C)cc1Oc1ccc(F)cc1C
- IC50 [1]: 231 nM
- IC50 [2]: > 400 nM

Compound: Cc1cc(Oc2ccc(Cl)cc2C)c(CN(C)C)cn1
- IC50 [1]: 6 nM
- IC50 [2]: 26 nM
- IC50 [3]: 1680 nM
- microsomal CLint [4]: < 7 µL/min/mg
- hepatocyte CLint [5]: < 5 µL/min/1e6 cells
- IC50 (Cytochrome P450 2D6): > 10000 nM
- IC50 (Cytochrome P450 3A4): > 10000 nM

Compound: CCc1cc(Cl)ccc1Oc1cc(C)ncc1CN(C)C
- IC50 [1]: 19 nM
- IC50 [2]: 30 nM
- IC50 [3]: > 34000 nM

Compound: Cc1cc(Cl)ccc1Oc1ccncc1CN(C)C
- IC50 [1]: 3 nM
- IC50 [2]: 36 nM
- IC50 [3]: 3230 nM

Compound: CNCc1cnccc1Oc1ccc(Cl)cc1C
- IC50 [1]: 14 nM
- IC50 [2]: 246 nM

Compound: CNCc1cnc(C)cc1Oc1ccc(Cl)cc1OC
- IC50 [1]: 4 nM
- IC50 [2]: 83 nM

Compound: COc1cc(Cl)ccc1Oc1ccncc1CN(C)C
- IC50 [1]: 6 nM
- IC50 [2]: 47 nM
- IC50 [3]: 10200 nM

Compound: CNCc1cnccc1Oc1ccc(Cl)cc1OC
- IC50 [1]: 14 nM
- IC50 [2]: 282 nM

Compound: CN(C)Cc1cnccc1Oc1ccc(Cl)cc1Br
- IC50 [1]: 4 nM
- IC50 [2]: 26 nM
- IC50 [3]: 1970 nM

Compound: CCc1cc(Cl)ccc1Oc1ccncc1CN(C)C
- IC50 [1]: 11 nM
- IC50 [2]: 18 nM
- IC50 [3]: > 38000 nM

Compound: CN(C)Cc1cnccc1Oc1ccc(Cl)cc1Cl
- IC50 [1]: 8 nM
- IC50 [2]: 25 nM
- IC50 [3]: 2430 nM

Compound: CCOc1cc(Cl)ccc1Oc1ccncc1CNC
- IC50 [1]: 24 nM
- IC50 [2]: 394 nM

Compound: CNCc1cnccc1Oc1ccc(Cl)cc1Br
- IC50 [1]: 23 nM
- IC50 [2]: 85 nM

Compound: CNCc1cnccc1Oc1ccc(Cl)cc1Cl
- IC50 [1]: 39 nM
- IC50 [2]: 159 nM

Compound: CNCc1cnc(C)cc1Oc1ccc(Cl)cc1C
- IC50 [1]: 6 nM
- IC50 [2]: 51 nM

Compound: CNCc1cnc(C)cc1Oc1ccc(C)cc1OC
- IC50 [1]: 18 nM
- IC50 [2]: 257 nM
